Read-outs that look alike come from different tables or passages of the source.

One series deals with T1, A. fumigatus phytase (Aspergillus fumigatus, UniProt O00092).
T1 construct: made in house; host or cells: Hansenula polymorpha
The format is biochemical. Particulars: for effect on the thermostabilization of A. fumigatus phytase: polyols with more than 6 or less than 5 carbon atoms, 65 °C; for temperature at which considerable activity still being detected: dicarboxylate at 25% (12.5% final concentration in the activity assay); for increase in phytase activity measured at 37 °C: dicarboxylates; for effects on the thermostability of the protein: sodium acetate 5, 10 and 25%. The method, then: (§1) After incubation of the sample for 15 mm at the desired temperature (e.g. at 60 or 65 °C for the screening of additive effects), the reaction was stopped by addition of 0.5 ml 15% trichloroacetic acid. Determination of liberated inorganic phosphate was performed by standard methods.
(§2) Disodium malonate, succinate and glutarate were dissolved at concentrations of 5, 10 and 25% and phytase activity was measured after preincubation of enzyme plus additive and substrate (see above) at the following temperatures: 37, 45, 50, 55, 60, 65, 70, 75, 80, and 85 °C. In the same way, the temperature dependence of the activity of different phytases in the presence of 25% xylitol and ribitol was tested. It should be noted that the concentration of the additives was reduced by half after substrate addition.

Series [1] in a line: Solubility of polyols in assay buffer. Particulars: at a concentration of 50% (w/w).
Method: PEGs have been dissolved at a concentration of 50% with the exception of PEGs with a molecular weight of 4000, 8000 and 10000 which were used at a concentration of 25%. For the screening of PEGs and other polyols, the preincubation and reaction temperature was chosen as 60 °C for A. nidulans and A. terreus CBS phytase, 65 °C for A. fumigatus and A. niger phytase and 75 °C for consensus phytase.
The next series addresses T2, A. nidulans phytase (Emericella nidulans, UniProt O00093).
T2 construct: made in house; host or cells: Aspergillus niger
The experiment in a line: Effect of stabilizing additives on thermostability of A. nidulans phytase. The note with it: 25% dicarboxylate. The format is biochemical, Aspergillus nidulans. Here is the method:
as §1, §2

The next series deals with T3, A. terreus CBS phytase (Aspergillus terreus, UniProt O00100).
T3 construct: made in house; host or cells: Hansenula polymorpha
T3 sequence (O00100 20-466): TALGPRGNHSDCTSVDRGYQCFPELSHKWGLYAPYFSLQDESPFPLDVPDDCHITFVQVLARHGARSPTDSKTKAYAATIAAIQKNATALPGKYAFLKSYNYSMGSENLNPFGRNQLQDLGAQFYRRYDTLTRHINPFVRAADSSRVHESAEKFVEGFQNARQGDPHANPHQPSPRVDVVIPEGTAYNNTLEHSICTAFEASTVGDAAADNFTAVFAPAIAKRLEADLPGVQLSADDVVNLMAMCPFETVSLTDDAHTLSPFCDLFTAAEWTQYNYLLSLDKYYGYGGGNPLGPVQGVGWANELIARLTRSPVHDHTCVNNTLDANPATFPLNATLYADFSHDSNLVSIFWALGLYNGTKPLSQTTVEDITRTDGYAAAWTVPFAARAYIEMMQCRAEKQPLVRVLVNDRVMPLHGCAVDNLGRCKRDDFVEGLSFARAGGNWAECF
Briefly: Effect of stabilizing additives on thermostability of A. terreus CBS phytase. It counts as biochemical. Particulars: 25% dicarboxylate. The method, then:
as §1, §2

A further series has as its target T4, A. niger phytase (Aspergillus niger, UniProt P34752).
T4 construct: made in house; host or cells: Aspergillus niger
The experiment in a line: Effect of stabilizing additives on thermostability of A. niger phytase. The format is biochemical. The note with it: 25% dicarboxylate. The method, then: as §1, §2

The subject of a further series is consensus phytase. The experiment in a line: Effect of stabilizing additives on thermostability of consensus phytase. It counts as biochemical. The note with it: for increase of thermostability: 25% dicarboxylate. Here is the method:
as §1
Disodium malonate, succinate and glutarate were dissolved at concentrations of 5, 10 and 25% and phytase activity was measured after preincubation of enzyme plus additive and substrate (see above) at the following temperatures: 37, 45, 50, 55, 60, 65, 70, 75, 80, and 85 °C. […] It should be noted that the concentration of the additives was reduced by half after substrate addition.

The mark [2] stands for this setting: in the presence of 50% solutions of polyol.
Setting [3] is: polyol at a concentration of 12.5%.
Setting [4] is: polyol at a concentration of 25%.

T1 sequence (O00092 27-465): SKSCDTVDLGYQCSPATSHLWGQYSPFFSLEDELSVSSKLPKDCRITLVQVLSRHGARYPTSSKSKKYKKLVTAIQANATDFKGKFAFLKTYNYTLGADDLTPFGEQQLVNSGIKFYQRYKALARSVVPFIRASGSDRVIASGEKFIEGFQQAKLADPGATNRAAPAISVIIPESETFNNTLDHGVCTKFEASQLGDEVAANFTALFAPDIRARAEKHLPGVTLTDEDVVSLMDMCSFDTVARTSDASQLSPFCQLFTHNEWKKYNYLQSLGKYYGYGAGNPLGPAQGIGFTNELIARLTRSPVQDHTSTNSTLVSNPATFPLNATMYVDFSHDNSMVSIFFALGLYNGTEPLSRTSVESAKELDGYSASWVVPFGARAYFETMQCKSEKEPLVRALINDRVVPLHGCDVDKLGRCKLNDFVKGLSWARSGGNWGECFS
T2 sequence (O00093 20-463): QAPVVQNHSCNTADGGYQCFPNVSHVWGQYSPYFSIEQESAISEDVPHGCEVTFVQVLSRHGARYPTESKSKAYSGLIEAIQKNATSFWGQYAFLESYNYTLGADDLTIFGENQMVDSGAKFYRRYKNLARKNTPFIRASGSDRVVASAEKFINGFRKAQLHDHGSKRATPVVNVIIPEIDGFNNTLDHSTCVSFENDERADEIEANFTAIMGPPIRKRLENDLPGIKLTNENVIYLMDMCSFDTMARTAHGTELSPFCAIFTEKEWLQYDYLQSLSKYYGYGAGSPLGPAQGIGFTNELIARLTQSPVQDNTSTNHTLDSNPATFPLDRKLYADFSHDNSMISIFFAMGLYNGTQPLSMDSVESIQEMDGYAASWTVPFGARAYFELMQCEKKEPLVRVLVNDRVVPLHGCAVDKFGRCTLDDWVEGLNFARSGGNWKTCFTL
T4 sequence (P34752 24-467): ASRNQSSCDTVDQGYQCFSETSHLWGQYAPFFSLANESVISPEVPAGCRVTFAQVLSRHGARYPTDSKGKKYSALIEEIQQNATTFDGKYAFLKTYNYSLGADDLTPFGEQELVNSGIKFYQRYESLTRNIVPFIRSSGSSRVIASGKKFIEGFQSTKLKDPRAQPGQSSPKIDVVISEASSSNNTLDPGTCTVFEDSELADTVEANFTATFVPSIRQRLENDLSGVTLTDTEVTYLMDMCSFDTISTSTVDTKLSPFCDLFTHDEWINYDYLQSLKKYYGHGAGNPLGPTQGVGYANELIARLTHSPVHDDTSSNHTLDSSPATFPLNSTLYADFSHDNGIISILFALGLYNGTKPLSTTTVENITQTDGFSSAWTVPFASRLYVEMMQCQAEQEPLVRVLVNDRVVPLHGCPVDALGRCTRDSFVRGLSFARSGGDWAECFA

Turning to `OC[C@@H](O)[C@@H](O)CO` [erythritol], at A. fumigatus phytase, the “effect on the thermostabilization of A. fumigatus phytase” value (from here on “effect on the thermostabilization”) is on record as “inferior effect”. Moreover, the “solubility in 0.2 M sodium acetate, pH 5.0” value (“solubility” for short) in series [1] is reported as “not soluble”.
`OCC(O)CO` [glycerol]: the “effect on the thermostabilization” value on A. fumigatus phytase is listed as “inferior effect”.
For the compound `O=C(O)CC(=O)O` [malonate, disodium malonate], at A. fumigatus phytase, the “temperature at which considerable activity still being detected” value was 70 °C. Besides, at A. fumigatus phytase, the “increase in phytase activity measured at 37 °C” value is on record as “approximately 4 fold”. Besides, the increase of thermostability at A. nidulans phytase, at A. terreus CBS phytase, on A. niger phytase and in the series on consensus phytase was 5-15 °C throughout.
For `O=C[C@@H](O)[C@@H](O)[C@H](O)[C@H](O)[C@H](O)CO` [mannoheptose], the “effect on the thermostabilization” value on A. fumigatus phytase is reported as “inferior effect”. In addition, the “solubility” value in series [1] is reported as “not soluble”.
As for `O=C(CO)[C@@H](O)[C@@H](O)[C@H](O)[C@H](O)CO` [mannoheptulose], the “effect on the thermostabilization” value on A. fumigatus phytase is reported as “inferior effect”. Further, the “solubility” value in series [1] was “not soluble”.
`OC[C@@H](O)[C@@H](O)[C@@H](O)CO` [ribitol]: the results for the “specific activities measured at 65 °C” value at A. fumigatus phytase (in the presence of 25% polyol) and on A. fumigatus phytase (setting [2]) were 11 U*(mg protein)^-1 and 51 U*(mg protein)^-1, respectively. In addition, the “specific activity measured at 65 °C” value at A. fumigatus phytase (setting [3]) is reported as 11-12 U/mg; at A. fumigatus phytase (setting [4]), 51-90 U/mg.
Take `CC(=O)O` [sodium acetate]: the “effects on the thermostability of the protein” value at A. fumigatus phytase is listed as “only minor effects”; at A. fumigatus phytase (listed as Sodium acetate) it was “no effect”.
Take `OC[C@@H](O)[C@@H](O)[C@H](O)[C@@H](O)CO` [sorbitol]: the entries for the “specific activities measured at 65 °C” value at A. fumigatus phytase (in the presence of 25% polyol) and at A. fumigatus phytase (setting [2]) were 11 U*(mg protein)^-1 and 74 U*(mg protein)^-1, respectively.
As for `O=C(O)CCC(=O)O` [succinate, disodium succinate], the “temperature at which considerable activity still being detected” value at A. fumigatus phytase turned out to be 65 °C. Further, the “increase in phytase activity measured at 37 °C” value on A. fumigatus phytase was determined as 2 fold. The increase of thermostability on A. nidulans phytase, at A. terreus CBS phytase, at A. niger phytase and in the series with consensus phytase was 5-15 °C throughout.
In the case of `OC[C@@H](O)[C@H](O)[C@@H](O)CO` [xylitol], the “specific activities measured at 65 °C” value on A. fumigatus phytase (in the presence of 25% polyol) is 21 U*(mg protein)^-1; on A. fumigatus phytase (setting [2]), 90 U*(mg protein)^-1. Further, the entries for the “specific activity measured at 65 °C” value on A. fumigatus phytase (setting [3]) and at A. fumigatus phytase (setting [4]) were 11-12 U/mg and 51-90 U/mg, respectively. Further, the “increase of temperature optimum” value in the series with consensus phytase (xylitol 50%) was 10-15 °C.

(Values after patent EP0969089A1, “Phytase formulation” (F. HOFFMANN-LA ROCHE AG, priority 1998, dated 2000).)
